From patent US9809578B2, “Pyrazolyl urea, thiourea, guanidine and cyanoguanidine compounds as trkA kinase inhibitors” (Array BioPharma Inc., priority 2012, dated 2017) come the findings set out here.

What all share (assay type): biochemical
Settings in all cases: 10 μM, ATP near Km

One experiment addresses T1, MST3 (Homo sapiens, UniProt Q9Y6E0).
T1 construct: purchased Millipore, Inc. (KinaseProfiler service)
Nature of the experiment: KinaseProfiler MST3. The text has this: (§1) The compound was run in duplicate at a concentration of ATP near the Km for each individual kinase according to Millipore's specifications.

Another experiment deals with T2, SGK2 (Homo sapiens, UniProt Q9HBY8).
T2 construct: purchased Millipore, Inc. (KinaseProfiler service)
Nature of the experiment: KinaseProfiler SGK2.
Excerpt: as §1

Another experiment addresses T3, SIK (Homo sapiens, UniProt P57059).
T3 construct: purchased Millipore, Inc. (KinaseProfiler service)
Description: KinaseProfiler SIK.
Excerpt: as §1

In the next experiment the target is T4, TSSK2 (Homo sapiens, UniProt Q96PF2).
T4 construct: purchased Millipore, Inc. (KinaseProfiler service)
Nature of the experiment: KinaseProfiler TSSK2.
Excerpt: as §1

The target in another experiment is T5, IGF-1R (Homo sapiens, UniProt P08069).
T5 construct: purchased Millipore, Inc. (KinaseProfiler service)
Description: KinaseProfiler IGF-1R.
Excerpt: as §1

In a further experiment the target is T6, NLK (Homo sapiens, UniProt Q9UBE8).
T6 construct: purchased Millipore, Inc. (KinaseProfiler service)
Description: KinaseProfiler NLK.
Excerpt: as §1

The next experiment concerns the target T7, MLK1 (Homo sapiens, UniProt P80192).
T7 construct: purchased Millipore, Inc. (KinaseProfiler service)
Nature of the experiment: KinaseProfiler MLK1.
Excerpt: as §1

In a further experiment the target is T8, CAMK1 (Homo sapiens, UniProt Q14012).
T8 construct: purchased Millipore (KinaseProfiler service)
Description: KinaseProfiler CAMK1.
Excerpt: as §1

In the next experiment the target is T9, IRR (Homo sapiens, UniProt P14616).
T9 construct: purchased Millipore, Inc. (KinaseProfiler service)
Description: KinaseProfiler IRR.
Excerpt: as §1

For another experiment, the target named is T10, IR (Homo sapiens, UniProt P06213).
T10 construct: purchased Millipore, Inc. (KinaseProfiler service)
Nature of the experiment: KinaseProfiler IR.
Excerpt: as §1

The target of a further experiment is T11, MAP3K5 (Homo sapiens, UniProt Q99683).
T11 construct: purchased Millipore, Inc. (KinaseProfiler service)
Nature of the experiment: KinaseProfiler MAP3K5.
Excerpt: as §1

In a further experiment the target is T12, MAPKAP-K2 (Homo sapiens, UniProt P49137).
T12 construct: purchased Millipore, Inc. (KinaseProfiler service)
Description: KinaseProfiler MAPKAP-K2.
Excerpt: as §1

For the next experiment, the target named is T13, CAMK2b (Homo sapiens, UniProt Q13554).
T13 construct: purchased Millipore (KinaseProfiler service)
Nature of the experiment: KinaseProfiler CAMK2b.
Excerpt: as §1

In another experiment the target is T14, EphA5 (Homo sapiens, UniProt P54756).
T14 construct: purchased Millipore, Inc. (KinaseProfiler service)
Nature of the experiment: KinaseProfiler EphA5.
Excerpt: as §1

The next experiment deals with T15, Lck (Homo sapiens, UniProt P06239).
T15 construct: purchased Millipore, Inc. (KinaseProfiler service)
Description: KinaseProfiler Lck.
Excerpt: as §1

The next experiment concerns the target T16, BrSK2 (Homo sapiens, UniProt Q8IWQ3).
T16 construct: purchased Millipore (KinaseProfiler service)
Nature of the experiment: KinaseProfiler BrSK2.
Excerpt: as §1

Another experiment addresses T17, MRCKalpha (Homo sapiens, UniProt Q5VT25).
T17 construct: purchased Millipore, Inc. (KinaseProfiler service)
Description: KinaseProfiler MRCKalpha.
Excerpt: as §1

Another experiment concerns the target T18, Fes (Homo sapiens, UniProt P07332).
T18 construct: purchased Millipore, Inc. (KinaseProfiler service)
Description: KinaseProfiler Fes.
Excerpt: as §1

The structures appear in SMILES notation.

T3 sequence (P57059 whole entry): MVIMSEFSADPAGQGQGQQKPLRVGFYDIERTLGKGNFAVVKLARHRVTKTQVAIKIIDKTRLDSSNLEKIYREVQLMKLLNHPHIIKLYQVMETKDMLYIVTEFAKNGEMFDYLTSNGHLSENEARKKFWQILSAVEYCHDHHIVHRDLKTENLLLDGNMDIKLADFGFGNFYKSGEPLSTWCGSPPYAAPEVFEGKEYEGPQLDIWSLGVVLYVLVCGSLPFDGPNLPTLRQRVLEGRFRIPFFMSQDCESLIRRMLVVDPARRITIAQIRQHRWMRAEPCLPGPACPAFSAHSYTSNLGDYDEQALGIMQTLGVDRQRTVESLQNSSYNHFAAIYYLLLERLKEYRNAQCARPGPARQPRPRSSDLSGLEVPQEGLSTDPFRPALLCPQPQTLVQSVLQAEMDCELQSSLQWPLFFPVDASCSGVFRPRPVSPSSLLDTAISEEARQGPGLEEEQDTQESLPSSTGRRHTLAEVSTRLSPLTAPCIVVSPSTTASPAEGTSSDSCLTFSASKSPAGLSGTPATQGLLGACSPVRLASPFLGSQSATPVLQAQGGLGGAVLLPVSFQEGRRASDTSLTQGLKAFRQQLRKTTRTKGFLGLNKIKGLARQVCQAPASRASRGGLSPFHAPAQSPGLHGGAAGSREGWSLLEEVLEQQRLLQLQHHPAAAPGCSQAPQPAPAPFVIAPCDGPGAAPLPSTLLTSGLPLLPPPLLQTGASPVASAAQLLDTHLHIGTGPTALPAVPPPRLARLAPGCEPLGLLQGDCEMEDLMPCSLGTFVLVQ
T12 sequence (P49137 whole entry): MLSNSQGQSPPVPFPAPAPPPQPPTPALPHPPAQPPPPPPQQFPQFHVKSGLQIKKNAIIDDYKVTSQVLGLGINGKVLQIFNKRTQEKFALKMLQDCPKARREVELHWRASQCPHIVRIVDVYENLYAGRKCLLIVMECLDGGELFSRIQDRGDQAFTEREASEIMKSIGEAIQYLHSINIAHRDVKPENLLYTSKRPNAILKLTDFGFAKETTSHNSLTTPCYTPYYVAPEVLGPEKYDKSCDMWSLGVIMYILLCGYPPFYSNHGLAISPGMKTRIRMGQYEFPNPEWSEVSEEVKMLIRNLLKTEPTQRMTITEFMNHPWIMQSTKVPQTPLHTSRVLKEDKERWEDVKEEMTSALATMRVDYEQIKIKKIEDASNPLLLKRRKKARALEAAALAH
T14 sequence (P54756 25-1037): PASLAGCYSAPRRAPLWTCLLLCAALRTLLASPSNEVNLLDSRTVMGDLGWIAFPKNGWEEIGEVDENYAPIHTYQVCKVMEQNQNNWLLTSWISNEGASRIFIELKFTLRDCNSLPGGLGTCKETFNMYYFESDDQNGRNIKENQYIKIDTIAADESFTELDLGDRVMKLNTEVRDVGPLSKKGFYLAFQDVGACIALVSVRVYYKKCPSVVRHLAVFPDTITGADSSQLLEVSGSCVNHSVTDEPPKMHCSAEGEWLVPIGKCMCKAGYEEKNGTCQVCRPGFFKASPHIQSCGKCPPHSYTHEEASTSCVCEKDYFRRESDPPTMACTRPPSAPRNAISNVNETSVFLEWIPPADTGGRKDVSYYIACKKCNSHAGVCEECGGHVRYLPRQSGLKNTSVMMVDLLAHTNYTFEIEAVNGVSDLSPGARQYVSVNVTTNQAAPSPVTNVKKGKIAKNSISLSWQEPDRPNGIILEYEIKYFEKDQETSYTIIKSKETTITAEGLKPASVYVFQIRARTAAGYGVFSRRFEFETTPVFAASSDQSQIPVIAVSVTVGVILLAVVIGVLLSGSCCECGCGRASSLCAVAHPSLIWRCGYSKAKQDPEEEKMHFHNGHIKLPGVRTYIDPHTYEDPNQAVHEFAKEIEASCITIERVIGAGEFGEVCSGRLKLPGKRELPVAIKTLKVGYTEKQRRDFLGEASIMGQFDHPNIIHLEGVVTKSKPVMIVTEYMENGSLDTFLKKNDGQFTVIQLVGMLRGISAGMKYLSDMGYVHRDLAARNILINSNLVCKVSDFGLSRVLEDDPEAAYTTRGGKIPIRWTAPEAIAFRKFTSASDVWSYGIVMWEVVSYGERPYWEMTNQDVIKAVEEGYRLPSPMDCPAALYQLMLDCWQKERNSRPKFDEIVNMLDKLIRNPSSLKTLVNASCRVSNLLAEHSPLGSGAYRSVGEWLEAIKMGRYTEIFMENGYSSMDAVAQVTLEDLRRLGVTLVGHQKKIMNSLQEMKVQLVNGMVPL
T10 sequence (P06213 28-1382): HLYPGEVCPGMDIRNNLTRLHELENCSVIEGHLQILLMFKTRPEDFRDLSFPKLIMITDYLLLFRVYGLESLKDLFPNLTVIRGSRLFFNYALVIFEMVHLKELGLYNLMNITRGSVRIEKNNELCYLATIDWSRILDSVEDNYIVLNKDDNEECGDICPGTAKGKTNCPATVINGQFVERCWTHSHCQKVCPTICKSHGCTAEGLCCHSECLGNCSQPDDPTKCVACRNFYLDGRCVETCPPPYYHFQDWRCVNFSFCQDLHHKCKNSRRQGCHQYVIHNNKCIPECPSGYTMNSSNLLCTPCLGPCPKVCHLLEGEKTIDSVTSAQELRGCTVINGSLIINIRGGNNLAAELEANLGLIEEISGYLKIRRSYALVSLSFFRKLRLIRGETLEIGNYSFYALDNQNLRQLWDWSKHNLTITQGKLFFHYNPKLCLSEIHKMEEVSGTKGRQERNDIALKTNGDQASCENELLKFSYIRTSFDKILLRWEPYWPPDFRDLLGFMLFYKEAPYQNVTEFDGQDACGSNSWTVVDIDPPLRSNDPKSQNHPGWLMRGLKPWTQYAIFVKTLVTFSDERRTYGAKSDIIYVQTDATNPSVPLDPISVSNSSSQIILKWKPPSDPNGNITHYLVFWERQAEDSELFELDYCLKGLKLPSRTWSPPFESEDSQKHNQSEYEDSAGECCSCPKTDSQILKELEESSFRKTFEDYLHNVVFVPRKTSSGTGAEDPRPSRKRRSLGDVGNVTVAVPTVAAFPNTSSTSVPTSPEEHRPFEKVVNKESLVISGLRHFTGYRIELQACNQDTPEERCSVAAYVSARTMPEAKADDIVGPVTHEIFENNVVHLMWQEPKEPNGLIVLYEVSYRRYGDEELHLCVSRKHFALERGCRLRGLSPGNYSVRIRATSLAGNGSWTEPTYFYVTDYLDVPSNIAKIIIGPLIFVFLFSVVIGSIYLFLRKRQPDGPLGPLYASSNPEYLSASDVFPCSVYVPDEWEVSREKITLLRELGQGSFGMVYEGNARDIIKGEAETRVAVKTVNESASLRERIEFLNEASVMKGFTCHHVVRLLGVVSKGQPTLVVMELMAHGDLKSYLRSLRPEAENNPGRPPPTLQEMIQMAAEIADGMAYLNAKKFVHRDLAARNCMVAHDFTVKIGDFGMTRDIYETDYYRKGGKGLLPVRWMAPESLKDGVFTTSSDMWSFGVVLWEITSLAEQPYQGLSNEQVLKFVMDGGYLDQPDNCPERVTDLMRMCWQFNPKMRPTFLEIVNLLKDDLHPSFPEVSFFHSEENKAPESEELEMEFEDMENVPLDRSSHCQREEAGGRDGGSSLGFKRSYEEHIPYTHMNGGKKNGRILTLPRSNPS
T4 sequence (Q96PF2 whole entry): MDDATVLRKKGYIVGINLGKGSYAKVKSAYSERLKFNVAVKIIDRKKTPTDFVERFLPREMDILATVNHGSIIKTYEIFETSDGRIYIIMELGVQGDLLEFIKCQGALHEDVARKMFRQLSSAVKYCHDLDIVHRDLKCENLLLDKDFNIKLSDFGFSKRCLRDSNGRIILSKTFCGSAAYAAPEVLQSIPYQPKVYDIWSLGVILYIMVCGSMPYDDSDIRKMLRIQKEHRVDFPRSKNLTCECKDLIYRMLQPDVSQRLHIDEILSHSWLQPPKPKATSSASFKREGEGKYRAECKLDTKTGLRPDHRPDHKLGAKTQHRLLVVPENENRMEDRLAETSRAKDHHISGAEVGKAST
T1 sequence (Q9Y6E0 whole entry): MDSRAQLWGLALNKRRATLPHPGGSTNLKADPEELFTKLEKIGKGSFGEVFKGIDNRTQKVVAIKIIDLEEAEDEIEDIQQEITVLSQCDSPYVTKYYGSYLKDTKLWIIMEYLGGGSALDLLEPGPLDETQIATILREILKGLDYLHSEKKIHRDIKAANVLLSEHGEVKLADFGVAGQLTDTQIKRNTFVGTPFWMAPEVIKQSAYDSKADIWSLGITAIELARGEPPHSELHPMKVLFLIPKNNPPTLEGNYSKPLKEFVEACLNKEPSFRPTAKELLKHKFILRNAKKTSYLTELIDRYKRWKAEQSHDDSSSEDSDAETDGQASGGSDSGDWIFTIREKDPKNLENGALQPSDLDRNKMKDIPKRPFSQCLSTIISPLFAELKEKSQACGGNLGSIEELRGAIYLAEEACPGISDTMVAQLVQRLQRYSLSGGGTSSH
T6 sequence (Q9UBE8 whole entry): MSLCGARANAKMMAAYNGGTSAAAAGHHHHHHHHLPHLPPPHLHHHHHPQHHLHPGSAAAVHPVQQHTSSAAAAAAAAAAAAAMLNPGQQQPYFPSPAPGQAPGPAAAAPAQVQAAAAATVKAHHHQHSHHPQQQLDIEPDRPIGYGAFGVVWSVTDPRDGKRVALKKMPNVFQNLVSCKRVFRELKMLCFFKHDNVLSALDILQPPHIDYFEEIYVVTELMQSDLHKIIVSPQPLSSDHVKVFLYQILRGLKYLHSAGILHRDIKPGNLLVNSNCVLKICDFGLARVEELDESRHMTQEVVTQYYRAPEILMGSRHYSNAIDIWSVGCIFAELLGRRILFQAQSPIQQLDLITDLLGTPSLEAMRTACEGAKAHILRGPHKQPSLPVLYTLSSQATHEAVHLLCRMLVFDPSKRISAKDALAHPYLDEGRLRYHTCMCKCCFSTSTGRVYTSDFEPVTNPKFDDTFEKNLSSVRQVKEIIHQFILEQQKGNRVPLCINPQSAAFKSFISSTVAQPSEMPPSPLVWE

On to `Cc1c(-c2cnn(C)c2)nn(-c2ccccc2)c1NC(=O)Nc1cc(C(F)(F)F)nn1-c1ccccc1` [Example 3, 1-(1′,4-dimethyl-1-phenyl-1H,1′H-[3,4′-bipyrazol]-5-yl)-3-(1-phenyl-3-(trifluoromethyl)-1H-pyrazol-5-yl)urea], for which the “Avg POC” value at MST3 is 146.5 POC; on SGK2, 159.5 POC; at SIK it was 154.5 POC; on TSSK2 it was 132.5 POC; on IGF-1R, 74.5 POC; on NLK, 116.5 POC. The “Avg POC” value was 100.5 POC on MLK1; 103.5 POC at CAMK1; 99.5 POC at IRR; 90 POC at IR; 102 POC on MAP3K5; 142.5 POC at MAPKAP-K2. For the same compound, the “Avg POC” value was determined as 96.5 POC at CAMK2b; 116 POC at EphA5; 93 POC at Lck; 135 POC on BrSK2; 172.5 POC at MRCKalpha; 123 POC at Fes.
